Experiments:
TIF-IA = assay: Western blot of TIF-IA and Pol I in stimulated NIH3T3 cells; assay type: cell-based; conditions: 40 μM PD98059, 30 min
Description: Serum-starved NIH3T3 cells were stimulated for 30 min by 10% serum, 10 ng bFGF, 50 ng/ml EGF or 0.1 μM TPA in the absence or presence of 40 μM PD98059. A Western blot is shown with 50 μg lysate proteins and antibodies against unphosphorylated and phosphorylated ERK1/2 as well as Pol I (RPA116) and TIF-IA.
Similarly, the amount of both Pol I and TIF-IA remained the same in quiescent and serum-stimulated cells. On Western blots, TIF-IA from growing and quiescent cells appears as a closely spaced double-band (indicated by a dot and asterisk in FIG. 1B) that corresponds to differently phosphorylated forms of TIF-IA. After mitogenic stimulation, the faster migrating form was converted into the more slowly migrating TIF-IA moiety. The shift in electrophoretic mobility correlated with cellular pre-rRNA synthetic activity, i.e., was predominant 20-30 min after mitogenic stimulation and returned to normal levels after 2 hr. Activation of pre-rRNA synthesis and decrease in the electrophoretic mobility of TIF-IA was also observed after stimulation of quiescent cells with growth factors, e.g. bFGF, or EGF, or with the phorbol ester TPA (FIGS. 1C and D), a potent stimulus of the Ras-ERK pathway, through activation of protein kinase C.

[1] = system: pre-rRNA synthesis in NIH3T3 cells; assay: Northern blot of cellular pre-rRNA after mitogenic stimulation; assay type: cell-based; conditions: starved NIH3T3 cells stimulated by serum, bFGF, EGF or TPA; 40 μM PD98059, 30 min
Description: (C) PD98059 inhibits mitogenic stimulation of Pol I transcription. NIH3T3 cells were starved in DMEM/0.1% FCS for 12 hr before stimulation by serum, 10 ng/ml bFGF, 50 ng/ml EGF or 0.1 μM TPA in the absence or presence of 40 μM PD98059 for 30 min. Cellular RNA was isolated and the level of pre-rRNA, c-jun mRNA and cytochrome C oxidase (cox) mRNA was monitored on Northern blots.
NIH3T3, HEK293T and CLL39 cells were cultured in Dulbecco's modified Eagles medium (DMEM) supplemented with 10% fetal calf serum. Cells were transfected with 5 μg of DNA per 10^6 cells using the calcium phosphate DNA coprecipitation method. Total RNA was isolated after 48 h and analyzed on Northern blots as described (Voit et al., EMBO J. 18 (1999), 1891-1899). Cellular pre-rRNA levels were monitored by hybridization to antisense RNA complementary to the first 155 nucleotides of unprocessed 45S pre-RNA. Transcripts from the rDNA reporter plasmid were monitored by hybridization to a riboprobe that is complementary to pUC sequences inserted between the rDNA promoter and terminator sequences of pMrl930-BH. […] Transcripts from the rDNA reporter plasmid were monitored by hybridization to a riboprobe that is complementary to pUC sequences inserted between the rDNA promoter and terminator sequences of pMrl930-BH. […]

Pol I = assay: Co-immunoprecipitation of Pol I with TIF-IA mutants from HEK293T cells; assay type: binding, human
Description: (B) A mutant that mimics phosphorylation of TIF-IA at S199 fails to interact with Pol I and TIF-IB. FLAG-tagged wild-type TIF-IA or the indicated point mutants were overexpressed in HEK293T cells and immunoprecipitated from cell lysates with anti-FLAG antibodies (M2 agarose). Co-precipitated Pol I and TIF-IB/SL1 were visualized on Western blots with anti-RPA116 and anti-TAFI110 antibodies.
Immunoprecipitations were carried out from human cells overexpressing FLAG-tagged TIF-IA. Cells were lysed in IP buffer, cleared by centrifugation at 10,000×g for 30 min, and the supernatants were incubated for 4 hr at 4° C. with anti-FLAG (M2) agarose (Sigma). To analyze the interaction of TIF-IA with TIF-IB/SL1, the immunoprecipitates were washed with IP buffer and TIF-IB/SL1 was visualized on immunoblots with α-TAFI110 antibodies. To monitor the interaction of TIF-IA with Pol I, the immunoprecipitates were washed with IP buffer containing 600 mM NaCl and Pol I was analyzed on Western blots using antibodies against the second largest subunit of Pol I (RPA116) or PAF67 (Seither et al., J. Biol. Chem. 382 (2001), 1163-1170).
Given the importance of mTOR-mediated alterations in the phosphorylation pattern on TIF-IA activity, one could predict that either phosphorylation of S199, dephosphorylation of S44 or both regulate the interaction of TIF-IA with the Pol I transcription apparatus. It was therefore examined whether the S→A or S→D point mutant(s) were capable of interacting with Pol I and/or TIF-IB/SL1. For this, TIF-IA was precipitated from cells overexpressing either FLAG-tagged wild-type TIF-IA or the respective S199 and S44 mutant(s), and co-precipitated Pol I and TIF-IB/SL1 were visualized on Western blots.

Compound | effect on electrophoretic mobility shift of TIF-IA after stimulation (TIF-IA) | effect on the amount of Pol I and TIF-IA (TIF-IA) | effect on serum- and growth factor-induced pre-rRNA synthesis [1] | interaction with Pol I (co-precipitated RPA116) (Pol I)
COc1cccc(-c2cc(=O)c3ccccc3o2)c1N [PD98059] | prevented the electrophoretic mobility shift of TIF-IA | does not affect the amount of Pol I and TIF-IA | blocked serum- and growth factor-induced stimulation of pre-rRNA synthesis | 
TIF-IA: wild-type human transcription initiation factor TIF-IA, accession No. AJ272050 |  |  |  | interacted with both Pol I and TIF-IB/SL1

Reference: patent publication US20060057669A1, “Inactive transcription factor tif-ia and uses thereof” (priority 2002, published 2006)
